From paper PMC9397875 (PLoS ONE, 2022)

Assays:
leukemia cells (K562) = system: leukemia cells (K562); design: method as in ref 3, 19 = [3]; doi:10.1039/C2MD20172K; 3 Woods JR , Mo H , Bieberich AA , Alavanja T , Colby DA . Amino derivatives of the sesquiterpene lactone class of natural products as prodrugs . Med.Chem.Comm . 2013; 4 ( 1 ): 27 – 33 . doi: 10.1039 || [19]; 19 Unde NR , Hiremath SV , Kulkarni GH , Kelkar GR . Amino derivatives of sesquiterpenes lactone class of natural products prodrugs . Tetrahedron Lett . 1968; 9 : 4861 – 4862 .; details: antiproliferative; cited from earlier work
[1] = system: colon cancer cells (SW-620); design: method as in ref 3 = [3]; doi:10.1039/C2MD20172K; 3 Woods JR , Mo H , Bieberich AA , Alavanja T , Colby DA . Amino derivatives of the sesquiterpene lactone class of natural products as prodrugs . Med.Chem.Comm . 2013; 4 ( 1 ): 27 – 33 . doi: 10.1039; details: antiproliferative; cited from earlier work
[2] = system: colorectal cancer cells (SW-620); design: method as in PMID 16766184; details: cytotoxicity; cited from earlier work
[3] = system: HCC70 triple negative breast cancer cells; experiment: Resazurin cytotoxicity assay, HCC70; format: cell-based; details: for IC50: Homo sapiens, HCC70 cells, 96 hours treatment, resazurin, read-out: HCC70 IC50 (μM) ± SD; for SI (selectivity index) for HCC70: IC50 against MCF12A cells ÷ IC50 against HCC70 cells
Experimental: (§1) Cytotoxicity and the IC50 of the synthetic compounds were determined using the resazurin assay, [12, 13]. The cancer cells MCF-7 hormone receptor positive breast cancer [estrogen receptor (ER)^+, progesterone receptor (PR)^+, human epidermal growth factor-2 (HER-2)^-; ATCC: HTB-22), HCC70 triple negative breast cancer (TNBC, ER^-, PR^-, HER-2^-; ATCC: CRL-2315) and a non-tumorigenic breast epithelial cell line MCF-12A (ATCC: CRL-10782), were seeded at a density of 5000 cells/well in a 96 well plate and were allowed to adhere overnight at 37°C in a 9% CO2 incubator. The cells were then treated with the synthetic compounds at a concentration range from 15.63–500.00 μM or with a vehicle control [0.2% (v/v) DMSO] for 96 hours at 37°C in a 9% CO2 incubator. Thereafter, […] of resazurin solution was added and the cells were incubated for 2–4 hours at 37°C in a 9% CO2 incubator. The fluorescence was then measured on a Spectramax spectrophotometer with excitation and emission wavelength set at 560 and 590 nm respectively. The experiment was done in technical triplicate and the data were analyzed using GraphPad Prism Inc, (USA) with half-maximal inhibitory concentration (IC50 values) determined by non-linear regression. Selectivity index values for the compounds were calculated as follows: (IC50 of compound against MCF12A cells)÷(IC50 of compound against breast cancer cells) where a SI > 1 is indicative of selective toxicity towards cancer cells vs non-cancerous cells.
(§2) The HCC70 (ATCC-CRL-2315) basal triple-negative breast cancer (TNBC) cell lines and MCF-7 luminal A cancer cell line (ATCC-HTB-22) were purchased from the American Type Culture Collection (ATCC, USA). The MCF-12A breast epithelial cell line (ATCC-CRL-10782) was a gift from Dr Anna-Mart Engelbrecht (Department of Physiology, Stellenbosch University, South Africa).

[4] = system: MCF-7 hormone receptor positive breast cancer cells; experiment: Resazurin cytotoxicity assay, MCF-7; format: cell-based; details: for IC50: Homo sapiens, MCF7, MCF-7 cells, 96 hours treatment, resazurin, read-out: MCF-7 IC50 (μM) ± SD; for SI (selectivity index) for MCF-7: IC50 against MCF12A cells ÷ IC50 against MCF-7 cells
Experimental: as §1, §2

[5] = system: MCF-12A non-tumorigenic breast epithelial cell line; experiment: Resazurin cytotoxicity assay, MCF-12A; format: cell-based; details: Homo sapiens, MCF-12A cells, 96 hours treatment, read-out: MCF-12A IC50 (μM) ± SD
Experimental: as §1, §2

| SMILES | GI50 (leukemia cells (K562)) | GI50 [1] | IC50 [2] | IC50 [3] | SI (selectivity index) for HCC70 [3] | IC50 [4] | SI (selectivity index) for MCF-7 [4] | IC50 [5] |
| --- | --- | --- | --- | --- | --- | --- | --- | --- |
| C=C1C(=O)O[C@@H]2/C=C(\C)CC/C=C(\C)CC[C@@H]12 [costunolide] | 14.5 µM | 7.8 µM | 7.8 µM |  |  |  |  |  |
| C=C1CC[C@@H]2C(=C)CC[C@H]3[C@@H](OC(=O)[C@H]3CN(CC)CC)[C@H]12 (relative stereo) [DHLC-2, (*3aS,6aR,9aR,9bS*)-3-[(diethylamino)methyl]decahydro-6,9-bis(methylene)azuleno[4,5-b]furan-2(3H)-one] |  |  |  | 1.48 ± 1.49 µM | SI = 6.00 | 0.07 µM | SI = 126.86 | 8.88 ± 1.1 µM |
| C=C1CC[C@@H]2C(=C)CC[C@H]3[C@@H](OC(=O)[C@H]3CNCCN)[C@H]12 [DHLC-4, 13-ethylenediamine dehydrocostus lactone] |  |  |  | 2.71 ± 1.3 µM | SI = 54.50 | 4.24 ± 1.29 µM | SI = 34.83 | 147.7 ± 1.28 µM |
| C=C1CC[C@@H]2C(=C)CC[C@H]3[C@@H](OC(=O)[C@H]3CNCC)[C@H]12 [DHLC-3, Guaia-4(15),10(14)-dien-12-oic acid, 13-(ethylamino)-6-hydroxy-γ-lactone] |  |  |  | 3.25 ± 1.36 µM | SI = 57.91 |  | SI = 8.33 | 188.2 ± 1.35 µM |
| CC[C@@]1(O)C(=O)OCc2c1cc1n(c2=O)Cc2cc3ccccc3nc2-1 [Camptothecin, reference compound] |  |  |  | 83.2 ± 1.08 µM |  | 104 ± 9.92 µM |  | 104.2 ± 1.04 µM |
| C=C1CC[C@@H]2C(=C)CC[C@H]3[C@@H](OC(=O)[C@H]3CN(C)C)[C@H]12 [DHLC-1, Guaia-4(15),10(14)-dien-12-oic acid, 13-(dimethylamino)-6-hydroxy-γ-lactone] |  |  |  | 0.64 ± 1.47 µM | SI = 13.23 | 0.07 ± 0.07 µM | SI = 121 | 8.47 ± 1.42 µM |
| C=C1CC[C@H]2C(=C)CC[C@H]3C(=C)C(=O)O[C@@H]3[C@@H]12 [DHLC, Dehydrocostus lactone, reference compound] |  |  |  | 1.11 ± 1.31 µM | SI = 0.06 | 24.7 ± 1.25 µM |  | 0.07 ± 0.07 µM |
